Source: US20230136297A1, “Methods Of Treating Fabry Disease In Patients Having A Mutation In The GLA Gene” (Amicus Therapeutics, Inc., priority 2020, published 2023)
Substitutions are numbered along the chain they refer to.

Columns and labels:
Test in all cases: α-Gal A activity in lysates of transfected HEK-293 cells ± migalastat (HEK assay)
Type in all cases: cell-based
[1] = biological target: T1, α-Gal A mutant form P259S (Homo sapiens, UniProt P06280, P259S)
T1 construct: expressed in transfected cells; host or cells: HEK-293
T1 sequence (P06280 32-429 P259S): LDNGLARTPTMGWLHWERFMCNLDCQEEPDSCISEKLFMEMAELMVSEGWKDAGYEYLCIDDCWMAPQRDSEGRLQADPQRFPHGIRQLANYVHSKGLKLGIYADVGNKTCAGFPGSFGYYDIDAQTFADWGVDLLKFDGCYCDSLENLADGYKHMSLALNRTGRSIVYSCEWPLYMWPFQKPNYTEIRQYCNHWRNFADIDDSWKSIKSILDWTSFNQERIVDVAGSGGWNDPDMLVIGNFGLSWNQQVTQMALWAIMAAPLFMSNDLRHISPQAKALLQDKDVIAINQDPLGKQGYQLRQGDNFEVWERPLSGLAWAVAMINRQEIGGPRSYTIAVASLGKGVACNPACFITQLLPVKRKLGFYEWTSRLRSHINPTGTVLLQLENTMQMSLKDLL
Summary of the method: (§1)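 Activity is reported as nmol of free 4-MU released per mg protein per hour (nmol/mg/hr).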

[2] = biological target: T2, α-Gal A mutant form N419D (Homo sapiens, UniProt P06280, N419D)
T2 construct: expressed in transfected cells; host or cells: HEK-293
T2 sequence (P06280 32-429 N419D): T1 sequence (P06280 32-429 P259S) with S228P, N388D
Summary of the method: as §1

[3] = biological target: T3, α-Gal A mutant form V124G (Homo sapiens, UniProt P06280, V124G)
T3 construct: expressed in transfected cells; host or cells: HEK-293
T3 sequence (P06280 32-429 V124G): T1 sequence (P06280 32-429 P259S) with V93G, S228P
Summary of the method: as §1

[4] = biological target: T4, α-Gal A mutant form F169I (Homo sapiens, UniProt P06280, F169I)
T4 construct: expressed in transfected cells; host or cells: HEK-293
T4 sequence (P06280 32-429 F169I): T1 sequence (P06280 32-429 P259S) with F138I, S228P
Summary of the method: as §1

[5] = biological target: T5, α-Gal A mutant form G411S (Homo sapiens, UniProt P06280, G411S)
T5 construct: expressed in transfected cells; host or cells: HEK-293
T5 sequence (P06280 32-429 G411S): T1 sequence (P06280 32-429 P259S) with S228P, G380S
Summary of the method: as §1

[6] = 10 μM migalastat minus baseline
[7] = HEK-293 lysates, 10 μM migalastat 5 days, mean ± SEM

Question: What does the source list for `OC[C@H]1NC[C@H](O)[C@@H](O)[C@H]1O` [migalastat, (2R,3S,4R,5S)-2-(hydroxymethyl) piperdine-3,4,5-triol]?
Answer: Absolute increase (% WT) [1, 6]: 35.5 % WT; Relative increase ([1]; 10 μM migalastat ÷ baseline): 1.86; 10 μM migalastat α-Gal A activity [1, 7]: 28621 ± 3141 nmol/mg/h; 10 μM migalastat α-Gal A activity (% WT) [1, 7]: 79.8 ± 4.8 % WT; Absolute increase (% WT) [2, 6]: 12.6 % WT; Relative increase ([2]; 10 μM migalastat ÷ baseline): 1.37; 10 μM migalastat α-Gal A activity [2, 7]: 14558 ± 678 nmol/mg/h; 10 μM migalastat α-Gal A activity (% WT) [2, 7]: 44.1 ± 2.9 % WT; Absolute increase (% WT) [3, 6]: 6.4 % WT; 10 μM migalastat α-Gal A activity [3, 7]: 4316 ± 432 nmol/mg/h; 10 μM migalastat α-Gal A activity (% WT) [3, 7]: 10.7 ± 1^ % WT; Absolute increase (% WT) [4, 6]: 35.9 % WT; Relative increase ([4]; 10 μM migalastat ÷ baseline): 3.44; 10 μM migalastat α-Gal A activity [4, 7]: 15903 ± 567 nmol/mg/h; 10 μM migalastat α-Gal A activity (% WT) [4, 7]: 51.7 ± 2.2 % WT; Absolute increase (% WT) [5, 6]: 22 % WT; Relative increase ([5]; 10 μM migalastat ÷ baseline): 1.58; 10 μM migalastat α-Gal A activity [5, 7]: 17543 ± 867 nmol/mg/h; 10 μM migalastat α-Gal A activity (% WT) [5, 7]: 61.1 ± 3.2 % WT
